Data on 29 molecules can be found in patent US6750228B1, “Aromatic sulfone hydroxamic acid metalloprotease inhibitor” (priority 1997, dated 2004).

Usually IC50 stands for the concentration at which inhibition is half-maximal.

What all share (experiment): biochemical
Experiment [1] deals with T1, MMP-13 (Homo sapiens, UniProt P45452).
T1 construct: made in house; host or cells: baculovirus / insect cells
Particulars: read-out: MMP-13 IC50. The procedure, abridged:
(§1)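 APMA- or trypsin-activated enzymes were preincubated with inhibitor for 5 min at room temperature, then the fluorogenic substrate MCA-Pro-Leu-Gly-Leu-Dpa-Ala-Arg-NH2 was added to a final 4 μM.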

For experiment [2], the target named is T2, MMP-2 (Homo sapiens, UniProt P08253).
T2 construct: made in house; provided by Dr. Gregory Goldberg, Washington University
T2 sequence (P08253 110-660): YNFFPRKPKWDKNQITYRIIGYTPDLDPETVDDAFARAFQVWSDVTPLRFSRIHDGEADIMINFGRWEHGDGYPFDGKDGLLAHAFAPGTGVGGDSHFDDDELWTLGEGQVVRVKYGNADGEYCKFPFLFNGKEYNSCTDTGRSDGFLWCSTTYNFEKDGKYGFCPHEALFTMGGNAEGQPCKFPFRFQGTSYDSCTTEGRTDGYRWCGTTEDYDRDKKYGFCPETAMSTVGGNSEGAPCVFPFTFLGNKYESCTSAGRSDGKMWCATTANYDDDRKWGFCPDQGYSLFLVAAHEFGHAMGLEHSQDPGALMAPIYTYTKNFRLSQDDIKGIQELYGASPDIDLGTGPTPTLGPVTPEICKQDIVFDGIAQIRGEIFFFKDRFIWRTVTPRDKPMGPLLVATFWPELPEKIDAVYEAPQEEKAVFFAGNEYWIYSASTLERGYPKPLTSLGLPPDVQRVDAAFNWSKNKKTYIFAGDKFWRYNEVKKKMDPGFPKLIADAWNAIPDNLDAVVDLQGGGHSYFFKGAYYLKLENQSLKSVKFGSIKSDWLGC
Conditions: read-out: MMP-2 IC50. In short, it runs like this: as §1

In experiment [3] the target is T3, MMP-1 (Homo sapiens, UniProt P03956).
T3 construct: made in house; host or cells: transfected HT-1080 cells (provided by Dr. Harold Welgus, Washington University)
T3 sequence (P03956 100-469): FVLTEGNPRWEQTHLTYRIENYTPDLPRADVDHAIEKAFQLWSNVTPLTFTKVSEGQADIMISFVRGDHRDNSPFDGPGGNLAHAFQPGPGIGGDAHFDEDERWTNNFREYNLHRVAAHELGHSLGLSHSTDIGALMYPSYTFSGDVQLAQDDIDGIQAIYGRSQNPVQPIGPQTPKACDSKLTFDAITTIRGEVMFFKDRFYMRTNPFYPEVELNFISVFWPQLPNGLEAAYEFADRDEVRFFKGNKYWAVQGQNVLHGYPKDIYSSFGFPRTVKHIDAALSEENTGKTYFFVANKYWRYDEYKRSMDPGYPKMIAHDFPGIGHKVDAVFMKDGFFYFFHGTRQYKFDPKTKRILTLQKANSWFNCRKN
Particulars: read-out: MMP-1 IC50. The procedure, abridged: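 APMA- or trypsin-activated human MMPs (MMP-1 from transfected HT-1080 cells, MMP-2 from transfected cells) preincubated with inhibitor in 1% DMSO at room temperature, then 4 μM MCA-Pro-Leu-Gly-Leu-Dpa-Ala-Arg-NH2 added in Tris/NaCl/CaCl2 buffer pH 7.5. IC50 from fluorescence reduction versus inhibitor concentration.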

Setting [4] is: recombinant human MMP-13, MCA peptide substrate 4 μM, pH 7.5, room temperature.
The mark [5] stands for this setting: recombinant human MMP-2, MCA peptide substrate 4 μM, pH 7.5, room temperature.
Where [6] appears, read: recombinant human MMP-1, MCA peptide substrate 4 μM, pH 7.5, room temperature.

Counter-ions that a name gives are not always drawn. Like-named read-outs stand apart in the source and are kept apart here.

Regarding `COc1cc(COC2CCN(c3ccc(S(=O)(=O)C4(C(=O)NO)CCOCC4)cc3)CC2)cc(OC)c1` [Example 178], the IC50 in experiment [1] (setting [4]) is 18.1 nM; in experiment [2] (setting [5]) it was 325 nM; in experiment [3] (setting [6]), > 10000 nM.
On to `O=C(NO)C1(S(=O)(=O)c2ccc(N3CCC(OCc4ccc(F)c(F)c4)CC3)cc2)CCOCC1` [Example 179], for which the figures for the IC50 in experiment [1] (setting [4]), in experiment [2] (setting [5]) and in experiment [3] (setting [6]) were 20.6 nM, 170 nM and > 10000 nM, respectively.
`N#Cc1ccc(COC2CCN(c3ccc(S(=O)(=O)C4(C(=O)NO)CCOCC4)cc3)CC2)cc1` [Example 180]: the IC50 in experiment [1] (setting [4]) is 1.1 nM; in experiment [2] (setting [5]) it was 41.8 nM; in experiment [3] (setting [6]), > 10000 nM.
In the same order, the values of `O=C(NO)C1(S(=O)(=O)c2ccc(N3CCC(OCc4ccccc4-c4ccccc4)CC3)cc2)CCOCC1` [Example 181] are 190 nM, 2300 nM and > 10000 nM.
In the same order, the values of `O=C(NO)C1(S(=O)(=O)c2ccc(N3CCC(Oc4ccccc4)CC3)cc2)CCOCC1` [Example 185, N-Hydroxy-4[[[4-(4-phenoxy)piperidyl]phenyl]sulfonyl]-1-tetrahydropyrancarboxamide] are 2.2 nM, 32.6 nM and > 10000 nM.
Taken in the same sequence, the figures for `Cc1cc(C)cc(OC2CCN(c3ccc(S(=O)(=O)C4(C(=O)NO)CCOCC4)cc3)CC2)c1` [Example 187] were 10 nM, 600 nM and > 10000 nM.
Consider `O=C(Nc1cccc(C(F)(F)F)c1)OC1CCN(c2ccc(S(=O)(=O)C3(C(=O)NO)CCOCC3)cc2)CC1` [Example 188, N-Hydroxy-4[[[4-[(3-trifluoromethyl)phenylcarbamoxy]piperidyl]phenyl]sulfonyl]-1-tetrahydropyrancarboxamide], for which the results for the 50% inhibitory concentration (IC50) in experiment [1] (setting [4]), in experiment [2] (setting [5]) and in experiment [3] (setting [6]) were 7 nM, 235 nM and > 10000 nM, respectively.
As for `CCOc1ccc(NC(=O)OC2CCN(c3ccc(S(=O)(=O)C4(C(=O)NO)CCOCC4)cc3)CC2)cc1` [Example 190], the IC50 in experiment [1] (setting [4]) was 4.7 nM; in experiment [2] (setting [5]), 136 nM; in experiment [3] (setting [6]), > 10000 nM.
In the same order, the values of `O=C(Nc1ccc(F)cc1)OC1CCN(c2ccc(S(=O)(=O)C3(C(=O)NO)CCOCC3)cc2)CC1` [Example 191] are 3.5 nM, 25.1 nM and > 10000 nM.
In the same order, the values of `O=C(NO)C1(S(=O)(=O)c2ccc(Oc3ccc(OC(F)(F)F)cc3)cc2)CCN(S(=O)(=O)c2ccccc2)CC1` [Example 194] are 0.3 nM, < 0.1 nM and > 7300 nM.
Taken in the same sequence, the figures for `O=C(NO)C1(S(=O)(=O)c2ccc(Oc3ccc(OC(F)(F)F)cc3)cc2)CCN(S(=O)(=O)Cc2ccccc2)CC1` [Example 195] were 1 nM, 0.2 nM and > 10000 nM.
As to `O=C(NO)C1(S(=O)(=O)c2ccc(Oc3ccc(OC(F)(F)F)cc3)cc2)CCN(S(=O)(=O)c2cccc(C(F)(F)F)c2)CC1` [Example 196], the results for the IC50 in experiment [1] (setting [4]), in experiment [2] (setting [5]) and in experiment [3] (setting [6]) were 1.6 nM, < 0.1 nM and > 10000 nM, respectively.
In the same order, the values of `O=C(NO)C1(S(=O)(=O)c2ccc(Oc3ccc(OC(F)(F)F)cc3)cc2)CCN(S(=O)(=O)C(F)(F)F)CC1` [Example 197] are 2.7 nM, < 0.1 nM and > 10000 nM.
On to `O=C(NO)C1(S(=O)(=O)c2ccc(Oc3ccc(OC(F)(F)F)cc3)cc2)CCN(C(=S)NCCN2CCOCC2)CC1` [Example 199], for which the IC50 was 0.2 nM in experiment [1] (setting [4]), < 0.1 nM in experiment [2] (setting [5]) and 3000 nM in experiment [3] (setting [6]).
Taken in the same sequence, the figures for `O=C(NO)C1(S(=O)(=O)c2ccc(Oc3ccc(OC(F)(F)F)cc3)cc2)CCN(C(=S)NCCN2CCCCC2)CC1` [Example 200] were 0.2 nM, < 0.1 nM and 3000 nM.
In the same order, the values of `O=C(NO)C1(S(=O)(=O)c2ccc(Oc3ccc(OC(F)(F)F)cc3)cc2)CCN(C(=S)Nc2cccnc2)CC1` [Example 201] are 0.3 nM, 0.2 nM and > 10000 nM.
In the case of `CN(C)c1ccc(NC(=S)N2CCC(C(=O)NO)(S(=O)(=O)c3ccc(Oc4ccc(OC(F)(F)F)cc4)cc3)CC2)cc1` [Example 202], the IC50 was 0.4 nM in experiment [1] (setting [4]), 0.2 nM in experiment [2] (setting [5]) and > 10000 nM in experiment [3] (setting [6]).
Taken in the same sequence, the figures for `O=C(NO)C1(S(=O)(=O)c2ccc(N3CCC(c4ccccc4C(F)(F)F)CC3)cc2)CCOCC1` [Example 207] were 28.8 nM, 900 nM and > 10000 nM.
Taken in the same sequence, the figures for `O=C(NO)C1(S(=O)(=O)c2ccc(N3CC=C(c4ccccc4C(F)(F)F)CC3)cc2)CCOCC1` [Example 208] were 110 nM, 1000 nM and > 10000 nM.
In the same order, the values of `O=C(NO)C1(S(=O)(=O)c2ccc(N3CCCCC3)cc2)CCOCC1` [Example 209] are 50 nM, 130 nM and > 10000 nM.
Consider `O=C(NO)C1(S(=O)(=O)c2ccc(N3CC=CCC3)cc2)CCOCC1` [Example 210], for which the figures for the IC50 in experiment [1] (setting [4]), in experiment [2] (setting [5]) and in experiment [3] (setting [6]) were 5.4 nM, 4.5 nM and 4000 nM, respectively.
Take `O=C(NO)C1(S(=O)(=O)c2ccc(N3CCC(n4c(=O)[nH]c5ccccc54)CC3)cc2)CCOCC1` [Example 211]: the IC50 was 11.4 nM in experiment [1] (setting [4]), 1200 nM in experiment [2] (setting [5]) and > 10000 nM in experiment [3].
With `O=C(NO)C1(S(=O)(=O)c2ccc(N3CCCCCC3)cc2)CCOCC1` [Example 212], the figures for the IC50 in experiment [1] (setting [4]), in experiment [2] (setting [5]) and in experiment [3] (setting [6]) were 160 nM, 240 nM and > 10000 nM, respectively.
For `CN1CCCN(c2ccc(S(=O)(=O)C3(C(=O)NO)CCOCC3)cc2)CC1` [Example 213], the IC50 in experiment [1] (setting [4]) was 1400 nM; in experiment [2] (setting [5]), 2700 nM; in experiment [3] (setting [6]), > 10000 nM.
As to `CC1(C)CC2CC(C)(CN2c2ccc(S(=O)(=O)C3(C(=O)NO)CCOCC3)cc2)C1` (stereo not drawn) [Example 214], the values for the IC50 in experiment [1] (setting [4]), in experiment [2] (setting [5]) and in experiment [3] (setting [6]) were 4900 nM, 3500 nM and > 10000 nM, respectively.
Taken in the same sequence, the figures for `O=C(CS(=O)(=O)c1ccc(Oc2ccncc2)cc1)NO` [Example 227] were 28.8 nM, 21.7 nM and > 10000 nM.
In the same order, the values of `Cc1ccc(N2CCC(C(=O)NO)(S(=O)(=O)c3ccc(Oc4ccc(OC(F)(F)F)cc4)cc3)CC2)cc1` [Example 229, N-Hydroxy-1-(4-methylphenyl)-4-[[4-[4-(trifluoromethoxy)phenoxy]phenyl]sulfonyl]-4-piperidinecarboxamide Monohydrochloride] are 0.18 nM, 0.1 nM and > 10000 nM.
Taken in the same sequence, the figures for `O=C(NO)C1(S(=O)(=O)c2ccc(Oc3ccc(SC(F)(F)F)cc3)cc2)CCNCC1` [Example 231, N-Hydroxy-4-[[4-[4-[(trifluoromethyl)thio]phenoxy]phenyl]-sulfonyl]-4-piperidinecarboxamide, Monohydrochloride] were 0.2 nM, 0.1 nM and > 10000 nM.
With `COCCN1CCC(C(=O)NO)(S(=O)(=O)c2ccc(N3CCC(C(=O)N4CC(C)CC(C)C4)CC3)cc2)CC1` (stereo not drawn) [Example 233, 4-[[4-[4-[(3,5-Dimethyl-1-piperidinyl)carbonyl]-1-piperidinyl]-phenyl]sulfonyl]-N-hydroxy-1-(2-methoxyethyl)-4-piperidinecarboxamide, Monohydrochloride], the IC50 is 43.5 nM in experiment [1], 2050 nM in experiment [2] and > 10000 nM in experiment [3].
